In one experiment the test system is MCF7 cells. The experiment in a line: Anti-proliferation (viability) of MCF7 cells (Table 7, FIG. 2B). As to conditions: Homo sapiens, MCF7, MCF7 cells, 3-6 days, 10-point serial dilution; read-out: GI IC50 in MCF-7. It is filed as cell-based.
The next experiment concerns the target CDK4 (Homo sapiens, UniProt P11802+Q16531). The experiment can be described thus: CDK4 percentage degradation in Calu-1 cells (Table 6). It is filed as cell-based. As to conditions: 16 hours; for inhibition at 0.04 µM: 40 nM; for inhibition at 0.2 µM: 200 nM. Also noted: Cells that express cyclin D1-3 and CDK4/6 proteins were treated with heterobifunctional compounds; endogenous in cells; host or cells: Calu-1. In short, it runs like this:
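Calu-1 cells exposed to heterobifunctional compounds at 40 nM or 200 nM for 16 h. Cyclin D1 and CDK4 levels measured by Western blot of RIPA lysates (BCA-normalised loading), bands quantified by densitometry and expressed as percentage degradation.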

The source of these data is patent US20260297081A1, “COMPOUNDS AND METHODS OF TREATING CANCERS” (Cullgen Inc., priority 2023, published 2026).

As a reminder, the IC50 is the concentration at which inhibition is half-maximal. Broadly, the inhibition is the change of the read-out against control, counted positive when it falls.

Sequence of CDK4 (P11802 2-303 limits assumed): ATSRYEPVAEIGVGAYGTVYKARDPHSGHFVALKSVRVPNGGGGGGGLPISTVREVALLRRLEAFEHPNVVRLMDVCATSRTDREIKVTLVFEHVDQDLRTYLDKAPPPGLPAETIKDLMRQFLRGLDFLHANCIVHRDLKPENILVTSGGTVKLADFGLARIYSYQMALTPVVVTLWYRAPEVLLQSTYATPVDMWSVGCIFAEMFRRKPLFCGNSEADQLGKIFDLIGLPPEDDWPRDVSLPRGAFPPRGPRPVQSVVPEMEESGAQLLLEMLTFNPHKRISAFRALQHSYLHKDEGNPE
Sequence of CDK4 (P24385 whole entry partner): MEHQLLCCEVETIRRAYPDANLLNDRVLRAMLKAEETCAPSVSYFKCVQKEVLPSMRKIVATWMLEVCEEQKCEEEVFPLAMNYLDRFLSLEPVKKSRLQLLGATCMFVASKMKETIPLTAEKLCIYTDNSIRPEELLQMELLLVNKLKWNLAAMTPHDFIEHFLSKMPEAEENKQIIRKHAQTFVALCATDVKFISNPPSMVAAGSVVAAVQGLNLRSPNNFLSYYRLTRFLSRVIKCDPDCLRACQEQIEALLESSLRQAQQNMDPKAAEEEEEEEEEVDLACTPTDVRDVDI
Sequence of CDK4 (Q16531 2-1140 limits assumed): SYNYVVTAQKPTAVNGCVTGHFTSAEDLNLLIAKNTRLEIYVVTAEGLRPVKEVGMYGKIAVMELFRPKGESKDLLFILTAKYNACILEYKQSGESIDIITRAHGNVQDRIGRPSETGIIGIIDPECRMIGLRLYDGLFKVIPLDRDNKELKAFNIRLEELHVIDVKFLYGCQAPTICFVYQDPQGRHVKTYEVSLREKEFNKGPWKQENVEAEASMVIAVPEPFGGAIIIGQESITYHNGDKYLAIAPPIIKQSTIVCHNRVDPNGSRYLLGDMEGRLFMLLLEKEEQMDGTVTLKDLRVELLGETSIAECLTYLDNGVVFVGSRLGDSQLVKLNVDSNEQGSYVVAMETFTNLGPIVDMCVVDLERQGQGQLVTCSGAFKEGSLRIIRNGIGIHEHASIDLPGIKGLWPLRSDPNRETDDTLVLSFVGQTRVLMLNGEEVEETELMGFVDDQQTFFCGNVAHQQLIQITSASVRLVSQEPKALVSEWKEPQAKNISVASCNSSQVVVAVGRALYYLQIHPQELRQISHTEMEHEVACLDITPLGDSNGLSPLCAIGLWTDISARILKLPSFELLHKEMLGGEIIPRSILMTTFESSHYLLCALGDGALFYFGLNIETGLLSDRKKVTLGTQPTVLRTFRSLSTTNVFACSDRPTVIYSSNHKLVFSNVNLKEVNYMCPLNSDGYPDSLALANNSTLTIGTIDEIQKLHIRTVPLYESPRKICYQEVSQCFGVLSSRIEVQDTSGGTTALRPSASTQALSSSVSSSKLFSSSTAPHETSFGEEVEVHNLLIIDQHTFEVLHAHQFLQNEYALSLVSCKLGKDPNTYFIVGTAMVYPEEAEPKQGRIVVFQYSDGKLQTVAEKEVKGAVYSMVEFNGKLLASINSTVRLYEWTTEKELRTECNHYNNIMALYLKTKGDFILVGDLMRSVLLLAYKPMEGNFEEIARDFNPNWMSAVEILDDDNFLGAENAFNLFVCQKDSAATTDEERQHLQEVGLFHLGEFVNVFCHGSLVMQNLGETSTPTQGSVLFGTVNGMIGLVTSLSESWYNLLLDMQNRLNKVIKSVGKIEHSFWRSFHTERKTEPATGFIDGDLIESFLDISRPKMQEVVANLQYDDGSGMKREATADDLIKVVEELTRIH

Regarding `CC(=O)c1c(C)c2cnc(Nc3ccc(N4CCN(CC(=O)NCC5CC(Nc6nc(NC(C)C)ccc6C(=O)Nc6cc(C)n(C)n6)C5)CC4)cn3)nc2n(C2CCCC2)c1=O` (stereo not drawn) [CPD-205, 2-((3-((2-(4-(6-((6-acetyl-8-cyclopentyl-5-methyl-7-oxo-7,8-dihydropyrido[2,3-d]pyrimidin-2-yl)amino)pyridin-3-yl)piperazin-1-yl)acetamido)methyl)cyclobutyl)amino)-N-(1,5-dimethyl-1H-pyrazol-3-yl)-6-(isopropylamino)nicotinamide], in the experiment on MCF7 cells, the half-maximal inhibitory concentration (IC50) is less than 50 nM. Moreover, at CDK4, the inhibition at 0.04 µM was in the range of 50 to 80% and the inhibition at 0.2 µM was 50 to 80%.

Take `CNc1ccc(C(=O)Nc2cn(C)c(C3CC3)n2)c(NC2CC(NC(=O)CN3CCN(c4ccc(Nc5ncc6c(C)c(C(C)=O)c(=O)n(C7CCCC7)c6n5)nc4)CC3)C2)n1` (stereo not drawn) [CPD-217, 2-((3-(2-(4-(6-((6-acetyl-8-cyclopentyl-5-methyl-7-oxo-7,8-dihydropyrido[2,3-d]pyrimidin-2-yl)amino)pyridin-3-yl)piperazin-1-yl)acetamido)cyclobutyl)amino)-N-(2-cyclopropyl-1-methyl-1H-imidazol-4-yl)-6-(methylamino)nicotinamide]: the IC50 in the experiment with MCF7 cells is greater than 100 nM. At CDK4, this compound displayed an inhibition at 0.04 µM of 50 to 80% and an inhibition at 0.2 µM of 50 to 80%.

As for `CNc1ccc(C(=O)Nc2ccc(F)c(C)n2)c(NC2CC3(CC(NC(=O)CN4CCN(c5ccc(Nc6ncc7c(C)c(C(C)=O)c(=O)n(C8CCCC8)c7n6)nc5)CC4)C3)C2)n1` (stereo not drawn) [CPD-221, 2-((6-(2-(4-(6-((6-acetyl-8-cyclopentyl-5-methyl-7-oxo-7,8-dihydropyrido[2,3-d]pyrimidin-2-yl)amino)pyridin-3-yl)piperazin-1-yl)acetamido)spiro[3.3]heptan-2-yl)amino)-N-(5-fluoro-6-methylpyridin-2-yl)-6-(methylamino)nicotinamide], the IC50 in the experiment on MCF7 cells is greater than 100 nM. Also, on CDK4, the inhibition at 0.04 µM fell in the range of 50 to 80% and the inhibition at 0.2 µM is 50 to 80%.

With `CNc1ccc(C(=O)Nc2ccc(N(C)C)nn2)c(N[C@H]2CC[C@H](NC(=O)CCN3CCN(c4ccc(Nc5ncc6c(C)c(C(C)=O)c(=O)n(C7CCCC7)c6n5)nc4)CC3)CC2)n1` [CPD-223, 2-((trans-4-(3-(4-(6-((6-acetyl-8-cyclopentyl-5-methyl-7-oxo-7,8-dihydropyrido[2,3-d]pyrimidin-2-yl)amino)pyridin-3-yl)piperazin-1-yl)propanamido)cyclohexyl)amino)-N-(6-(dimethylamino)pyridazin-3-yl)-6-(methylamino)nicotinamide], the half-maximal inhibitory concentration (IC50) in the experiment with MCF7 cells was 50 to 100 nM. On CDK4, the inhibition at 0.04 µM is 50 to 80% and the inhibition at 0.2 µM is 50 to 80%.

In the case of `CNc1ccc(C(=O)Nc2ccc(N(C)C)nn2)c(NC2CC3(C2)CN(C(=O)CC(C)N2CCN(c4ccc(Nc5ncc6c(C)c(C(C)=O)c(=O)n(C7CCCC7)c6n5)nc4)CC2)C3)n1` (stereo not drawn) [CPD-224, 2-((2-(3-(4-(6-((6-acetyl-8-cyclopentyl-5-methyl-7-oxo-7,8-dihydropyrido[2,3-d]pyrimidin-2-yl)amino)pyridin-3-yl)piperazin-1-yl)butanoyl)-2-azaspiro[3.3]heptan-6-yl)amino)-N-(6-(dimethylamino)pyridazin-3-yl)-6-(methylamino)nicotinamide], in the experiment on MCF7 cells, the IC50 is less than 50 nM. Moreover, at CDK4, the inhibition at 0.04 µM is 30 to 50% and the inhibition at 0.2 µM lay in the range of 30 to 50%.

As to `[2H]C([2H])([2H])Nc1ccc(C(=O)Nc2cccc(C)n2)c(NC2CC3(CC(NC(=O)CN4CCN(c5ccc(Nc6ncc7c(C)c(C(C)=O)c(=O)n(C8CCCC8)c7n6)nc5)CC4)C3)C2)n1` (stereo not drawn) [CPD-232, 2-((6-(2-(4-(6-((6-acetyl-8-cyclopentyl-5-methyl-7-oxo-7,8-dihydropyrido[2,3-d]pyrimidin-2-yl)amino)pyridin-3-yl)piperazin-1-yl)acetamido)spiro[3.3]heptan-2-yl)amino)-6-((methyl-d3)amino)-N-(6-methylpyridin-2-yl)nicotinamide], in the experiment with MCF7 cells, the concentration for half-maximal inhibition (IC50) is 50 to 100 nM. Besides, on CDK4, the inhibition at 0.04 µM lay in the range of 30 to 50% and the inhibition at 0.2 µM was 50 to 80%.

`[2H]C([2H])([2H])Nc1ccc(C(=O)Nc2cn(C)c(C3CC3)n2)c(NC2CC3(CC(NC(=O)CN4CCN(c5ccc(Nc6ncc7c(C)c(C(C)=O)c(=O)n(C8CCCC8)c7n6)nc5)CC4)C3)C2)n1` (stereo not drawn) [CPD-237, 2-((6-(2-(4-(6-((6-acetyl-8-cyclopentyl-5-methyl-7-oxo-7,8-dihydropyrido[2,3-d]pyrimidin-2-yl)amino)pyridin-3-yl)piperazin-1-yl)acetamido)spiro[3.3]heptan-2-yl)amino)-N-(2-cyclopropyl-1-methyl-1H-imidazol-4-yl)-6-((methyl-d3)amino)nicotinamide]: in the experiment on MCF7 cells, the half-inhibitory concentration (IC50) is greater than 100 nM. Also, at CDK4, the inhibition at 0.04 µM is 50 to 80% and the inhibition at 0.2 µM is 50 to 80%.

On to `[2H]C([2H])([2H])Nc1ccc(C(=O)Nc2ccc(N(C)C)nn2)c(NC2CC3(CC(NC(=O)CN4CCN(c5ccc(Nc6ncc7c(C)c(C(C)=O)c(=O)n(C8CCCC8)c7n6)nc5)CC4)C3)C2)n1` (stereo not drawn) [CPD-241, 2-((6-(2-(4-(6-((6-acetyl-8-cyclopentyl-5-methyl-7-oxo-7,8-dihydropyrido[2,3-d]pyrimidin-2-yl)amino)pyridin-3-yl)piperazin-1-yl)acetamido)spiro[3.3]heptan-2-yl)amino)-N-(6-(dimethylamino)pyridazin-3-yl)-6-((methyl-d3)amino)nicotinamide], for which the IC50 with MCF7 cells lay in the range of 50 to 100 nM. At CDK4, the inhibition at 0.04 µM fell in the range of 50 to 80% and the inhibition at 0.2 µM lay within 50 to 80%.

As to `CNc1ccc(C(=O)Nc2ccc(N(C)C)nn2)c(NC2CC(NC(=O)C(C)N3CCN(c4ccc(Nc5ncc6c(C)c(C(C)=O)c(=O)n(C7CCCC7)c6n5)nc4)CC3)C2)n1` (stereo not drawn) [CPD-242, 2-((3-(2-(4-(6-((6-acetyl-8-cyclopentyl-5-methyl-7-oxo-7,8-dihydropyrido[2,3-d]pyrimidin-2-yl)amino)pyridin-3-yl)piperazin-1-yl)propanamido)cyclobutyl)amino)-N-(6-(dimethylamino)pyridazin-3-yl)-6-(methylamino)nicotinamide], the IC50 in the experiment with MCF7 cells is greater than 100 nM. On CDK4, this compound showed an inhibition at 0.04 µM of 50 to 80% and an inhibition at 0.2 µM of 50 to 80%.

As for `[2H]C([2H])([2H])Nc1ccc(C(=O)Nc2cc(C)n(C)n2)c(NC2CC3(CC(NC(=O)CN4CCN(c5ccc(Nc6ncc7c(C)c(C(C)=O)c(=O)n(C8CCCC8)c7n6)nc5)CC4)C3)C2)n1` (stereo not drawn) [CPD-244, 2-((6-(2-(4-(6-((6-acetyl-8-cyclopentyl-5-methyl-7-oxo-7,8-dihydropyrido[2,3-d]pyrimidin-2-yl)amino)pyridin-3-yl)piperazin-1-yl)acetamido)spiro[3.3]heptan-2-yl)amino)-N-(1,5-dimethyl-1H-pyrazol-3-yl)-6-((methyl-d3)amino)nicotinamide], the IC50 in the experiment on MCF7 cells fell in the range of 50 to 100 nM. In addition, at CDK4, the inhibition at 0.04 µM was in the range of 30 to 50% and the inhibition at 0.2 µM was 50 to 80%.

Take `[2H]C([2H])([2H])Nc1ccc(C(=O)Nc2ccc(N(C)C)nn2)c(NC2CCN(C(=O)CN3CCN(c4ccc(Nc5ncc6c(C)c(C(C)=O)c(=O)n(C7CCCC7)c6n5)nc4)CC3)CC2)n1` [CPD-250, 2-((1-(2-(4-(6-((6-acetyl-8-cyclopentyl-5-methyl-7-oxo-7,8-dihydropyrido[2,3-d]pyrimidin-2-yl)amino)pyridin-3-yl)piperazin-1-yl)acetyl)piperidin-4-yl)amino)-N-(6-(dimethylamino)pyridazin-3-yl)-6-((methyl-d3)amino)nicotinamide]: in the experiment with MCF7 cells, the IC50 fell in the range of 50 to 100 nM. At CDK4, the inhibition at 0.04 µM was 30 to 50% and the inhibition at 0.2 µM lay in the range of 50 to 80%.

On to `CNc1ccc(C(=O)Nc2ccc(N(C)C)nn2)c(NC2CCN(C(=O)CN3CCN(Cc4ccc(Nc5ncc6c(C)c(C(C)=O)c(=O)n(C7CCCC7)c6n5)nc4)CC3)CC2)n1` [CPD-300, 2-((1-(2-(4-((6-((6-acetyl-8-cyclopentyl-5-methyl-7-oxo-7,8-dihydropyrido[2,3-d]pyrimidin-2-yl)amino)pyridin-3-yl)methyl)piperazin-1-yl)acetyl)piperidin-4-yl)amino)-N-(6-(dimethylamino)pyridazin-3-yl)-6-(methylamino)nicotinamide], for which, in the experiment with MCF7 cells, the half-inhibitory concentration (IC50) was 50 to 100 nM. Also, at CDK4, the inhibition at 0.04 µM is less than 30% and the inhibition at 0.2 µM was less than 30%.

Take `CC(=O)c1c(C)c2cnc(Nc3ccc(N4CCN(CC(=O)NCC5CC(Nc6nc(NC(C)C)ccc6C(=O)Nc6ccc(N(C)C)nn6)C5)CC4)cn3)nc2n(C2CCCC2)c1=O` (stereo not drawn) [CPD-316, 2-((3-((2-(4-(6-((6-acetyl-8-cyclopentyl-5-methyl-7-oxo-7,8-dihydropyrido[2,3-d]pyrimidin-2-yl)amino)pyridin-3-yl)piperazin-1-yl)acetamido)methyl)cyclobutyl)amino)-N-(6-(dimethylamino)pyridazin-3-yl)-6-(isopropylamino)nicotinamide]: the IC50 in the experiment on MCF7 cells is less than 50 nM. Besides, on CDK4, the inhibition at 0.04 µM fell in the range of 30 to 50% and the inhibition at 0.2 µM lay within 30 to 50%.

With `CC(=O)c1c(C)c2cnc(Nc3ccc(N4CCN(CC5(C(=O)N6CC7(CC(Nc8nc(NC(C)C)ccc8C(=O)Nc8cn(C)c(C9CC9)n8)C7)C6)CC5)CC4)cn3)nc2n(C2CCCC2)c1=O` [CPD-322, 2-((2-(1-((4-(6-((6-acetyl-8-cyclopentyl-5-methyl-7-oxo-7,8-dihydropyrido[2,3-d]pyrimidin-2-yl)amino)pyridin-3-yl)piperazin-1-yl)methyl)cyclopropane-1-carbonyl)-2-azaspiro[3.3]heptan-6-yl)amino)-N-(2-cyclopropyl-1-methyl-1H-imidazol-4-yl)-6-(isopropylamino)nicotinamide], the concentration for half-maximal inhibition (IC50) with MCF7 cells was less than 50 nM. At CDK4, this compound returned an inhibition at 0.04 µM of less than 30% and an inhibition at 0.2 µM of less than 30%.
